Where a chain is given by its changes, count along the chain named.
How the values were obtained:
Test in all cases: E. coli hemG growth inhibition by herbicide, AtPPO1 variant
Format in all cases: cell-based
Conditions in all cases: read-out: percentage growth inhibition
[1] = target: T1, AtPPO1 A176L (Arabidopsis thaliana, UniProt P55826, A176L)
T1 construct: expressed in transfected cells; host or cells: E. coli BL21(DE3) hemG (hemG replaced by CmR), pET24a plasmid
T1 sequence (P55826 35-537 A176L): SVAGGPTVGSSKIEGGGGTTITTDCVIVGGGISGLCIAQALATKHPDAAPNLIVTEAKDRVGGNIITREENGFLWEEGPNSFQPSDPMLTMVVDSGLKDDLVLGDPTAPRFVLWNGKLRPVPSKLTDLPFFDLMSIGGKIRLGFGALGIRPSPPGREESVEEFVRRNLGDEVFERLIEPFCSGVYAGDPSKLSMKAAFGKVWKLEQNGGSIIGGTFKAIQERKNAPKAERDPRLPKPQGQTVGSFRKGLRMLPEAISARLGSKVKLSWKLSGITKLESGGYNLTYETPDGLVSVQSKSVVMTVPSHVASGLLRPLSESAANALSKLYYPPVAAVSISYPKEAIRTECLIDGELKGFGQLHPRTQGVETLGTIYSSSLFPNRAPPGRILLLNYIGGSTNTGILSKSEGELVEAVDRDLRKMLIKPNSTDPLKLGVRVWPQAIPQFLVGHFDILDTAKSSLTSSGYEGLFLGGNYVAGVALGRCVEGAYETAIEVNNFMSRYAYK
How it was run: (§1)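 E. coli BL21(DE3) ΔhemG::CmR complemented by AtPPO1 variants (pET24a, T7, E. coli codon-optimised); TB + 0.1 mM IPTG, 1:100 inoculum; 6.25 ppm herbicide 0/E or 0.78 ppm herbicide B vs DMSO; 24 h, 37° C, 250 rpm; OD600 at 24 h → % growth inhibition.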

[2] = target: T2, AtPPO1 G64A (Arabidopsis thaliana, UniProt P55826, G64A)
T2 construct: expressed in transfected cells; host or cells: E. coli BL21(DE3) hemG (hemG replaced by CmR), pET24a plasmid
T2 sequence (P55826 35-537 G64A): T1 sequence (P55826 35-537 A176L) with G30A, L142A
How it was run: as §1

[3] = target: T3, AtPPO1 Y426C (Arabidopsis thaliana, UniProt P55826, Y426C)
T3 construct: expressed in transfected cells; host or cells: E. coli BL21(DE3) hemG (pET24a, T7 promoter)
T3 sequence (P55826 35-537 Y426C): T1 sequence (P55826 35-537 A176L) with L142A, Y392C
How it was run: as §1

[4] = target: T4, AtPPO1 L424V (Arabidopsis thaliana, UniProt P55826, L424V)
T4 construct: expressed in transfected cells; host or cells: E. coli BL21(DE3) hemG (pET24a, T7 promoter)
T4 sequence (P55826 35-537 L424V): T1 sequence (P55826 35-537 A176L) with L142A, L390V
How it was run: as §1

Row | SMILES | inhibition at 0.78 ppm [1] [%] | inhibition at 0.78 ppm [2] [%] | inhibition at 0.78 ppm [3] [%] | inhibition at 0.78 ppm [4] [%] | inhibition at 6.25 ppm [1] [%] | inhibition at 6.25 ppm [2] [%] | inhibition at 6.25 ppm [3] [%] | inhibition at 6.25 ppm [4] [%]
1 | C#CCN1C(=O)C(F)(F)Oc2cc(F)c(-n3c(=O)n(C)c(=S)n(C)c3=O)cc21 [Herbicide B, trifludimoxazin] | 35 | 36 | 2 | 19 | – | – | – | –
2 | CCOC(=O)[C@]1(C)CC(c2cc(-n3c(=O)n(C)c(=S)n(C)c3=O)c(F)cc2Cl)=NO1 [Herbicide D, ethyl (5S)-3-[2-chloro-5-(3,5-dimethyl-2,6-dioxo-4-thioxo-1,3,5-triazinan-1-yl)-4-fluoro-phenyl]-5-methyl-4H-isoxazole-5-carboxylate] | – | – | – | – | 42 | 38 | 34 | 33
3 | CC(C)N(C)S(=O)(=O)NC(=O)c1cc(-n2c(=O)cc(C(F)(F)F)n(C)c2=O)c(F)cc1Cl [Herbicide E, saflufenacil] | – | – | – | – | 61 | 34 | 4 | 66

Reference: patent publication US20260297542A1, “HERBICIDE RESISTANT PLANTS” (SYNGENTA CROP PROTECTION AG, priority 2023, published 2026)
